Consider 3 compounds from US5294611A, “Angiotensin II receptor blocking 2,3,6 substituted quinazolinones” (American Cyanamid Company, priority 1993, dated 1994).

A word on the IC50: it is the concentration that inhibits the measured activity by half. Usually inhibition in vivo stands for the share of the control response that was lost under treatment. Lower therefore signals a response near the control.

One experiment concerns the target T1, Angiotensin II Receptor (Bos taurus, UniProt P25104).
T1 construct: The brownish tissue forming the adrenal cortex is scraped off and finely minced with scissors before homogenization; tissue local slaughter house (maxwell-Cohen); host or cells: beef adrenal cortex, 100,000 x g microsomal membranes
T1 sequence (P25104 1-359): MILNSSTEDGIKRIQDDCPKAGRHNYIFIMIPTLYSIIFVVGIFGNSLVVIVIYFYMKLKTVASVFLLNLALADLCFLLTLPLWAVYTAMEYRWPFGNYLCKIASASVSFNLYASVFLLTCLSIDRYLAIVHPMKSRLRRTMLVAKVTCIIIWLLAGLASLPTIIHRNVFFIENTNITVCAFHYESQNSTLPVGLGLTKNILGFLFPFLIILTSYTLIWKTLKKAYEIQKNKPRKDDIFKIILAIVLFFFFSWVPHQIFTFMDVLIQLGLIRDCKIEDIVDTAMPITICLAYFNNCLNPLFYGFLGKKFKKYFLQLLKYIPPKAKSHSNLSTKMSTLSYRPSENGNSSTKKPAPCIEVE
Description: Receptor Binding Assay: displacement of [^125 I](Sar^1,Ile^8)AngII from adrenal cortex microsomal membranes. Further details: species or system beef (bovine adrenals). An excerpt: Beef adrenals are obtained from a local slaughter house (maxwell-Cohen). [^125 I](Sar^1,Ile^8)AngII, S.A. 2200 Ci/mmole, is purchased from Dupont (NEN®, Boston, Mass.). All unlabeled AngII analogs, Dimethylsulfoxide (DMSO), nucleotides, bovine serum albumin (BSA) are purchased from Sigma Chemical Co., St. Louis, Mo. U.S.A.
Approximately sixteen (16) to twenty (20) beef adrenal glands are processed as follows: fresh adrenal glands received on crushed ice are cleaned of fatty tissues and the tough membranes encapsulating the glands are removed and discarded. The brownish tissue forming the adrenal cortex is scraped off and finely minced with scissors before homogenization. Care is taken to avoid contamination with medullary tissue during dissection. The scraped cortices are suspended in twenty volumes of an ice-cold buffer medium consisting of 10 mM Tris.HCl (pH 7.4 at 22° C.) and containing 1.0 mM EDTA and 0.2M sucrose. Unless otherwise indicated, all subsequent operations are done at 4° C. […] The homogenate is centrifuged first at low speed (3,000× g) for 10 min. The resulting pellet is discarded and the supernatant fluid recentrifuged at 10,000× g for 15 minutes to give a P2 pellet. This P2 pellet is discarded and the liquid phase is carefully decanted off in clean centrifuge tubes and recentrifuged at high speed (100,000× g) for 60 min. The translucent final pellet is harvested and combined in a small volume (20-50.0 ml) of 50.0 mM Tris.HCl buffer, pH 7.2. A 100 ul aliquot is withdrawn and the protein content of the preparation is determined by the Lowry's method (Lowry, O. H., Rosebrough, N. F., Parr, A. L. and Randall, R. J., Protein measurement with Folin phenol reagent. J. Biol. Chem., 48, 265-275; 1951). The pelleted membrane is reconstituted in 50.0 mM Tris.HCl buffer containing 0.1 mM of phenylmethylsulfonyl fluoride (PMSF) to give approximately a protein concentration of 2.5 mg per ml of tissue suspension. The membrane preparation is finally aliquoted in 1.0 ml volumes and stored at -70° C. until use in the binding assays.
The binding of [^125 I](Sar^1,Ile^8)AngII to microsomal membranes is initiated by the addition of reconstituted membranes (1:10 vols.) in freshly made 50.0 mM Tris.HCl buffer, pH 7.4 containing 0.25% heat inactivated bovine serum albumin (BSA): 80 ul membrane protein (10 to 20 ug/assay) to wells already containing 100 ul of incubation buffer (as described above) and 20 ul [^125 I](Sar^1,ILE^8)AngII (Specific Activity, 2200 Ci/mmole). Non-specific binding is measured in the presence of 1.0 uM unlabeled (Sar^1,ILE^8)AngII, added in 20 ul volume. […] In competition studies, experimental compounds are diluted in dimethylsulfoxide (DMSO) and added in 20 ul to wells before the introduction of tissue membranes. […] Assays are performed in triplicate. The wells are left undisturbed for 60 min. at room temperature. Following incubation, all wells are harvested at once with a Brandel® Harvester especially designed for a 96 well plate (Brandel® Biomedical Research & Development Labs. Inc., Gaithersburg, Md., U.S.A.). The filter discs are washed with 10×1.0 ml of cold 0.9% NaCl to remove unbound ligand. […] This method is routinely used. The filters are removed from the filter grid and counted in a Parkard® Cobra Gamma Counter for 1 min. (Packard Instrument Co., Downers Grove, Ill., U.S.A.). The binding data are analyzed by the non-linear interactive "LUNDON-1" program (LUNDON SOFTWARE Inc., Cleveland, Ohio U.S.A.).

The test system of experiment [1] is Angiotensin II (AII) vasopressor response. Description: AII Challenge: antagonism of angiotensin II vasopressor response in conscious spontaneously hypertensive rats. Type of experiment: in vivo, rat (male okamoto-Aoki SHR). Particulars: 1 mg/kg I.V.; for inhibition in vivo at 1 mg/kg: Rattus norvegicus, iv; for inhibition in vivo at 1 mg/kg / Average Change: SHR n=2; for Change: single SHR. The text has this: Conscious Male okamoto-Aoki SHR, 16-20 weeks old, weighing approximately 330 g are purchased from Charles River Labs (Wilmington, Mass.). Conscious rats are restrained in a supine position with elastic tape. The area at the base of the tail is locally anesthetized by subcutaneous infiltration with 2% procaine. […] The cannula is secured, heparinized (1,000 I.U./ml), sealed and the wound is closed. The animals are placed in plastic restraining cages in an upright position. The cannula is attached to a Statham P23Db pressure transducer, and pulsatile blood pressure is recorded to 10-15 minutes with a Gould Brush recorder. […] Angiotensin II (human sequence, Sigma Chem. Co., St. Louis, Mo.) of 0.05 and 0.1 ug/kg i.v. is injected into all rats (predosing response). Then a test compound, vehicle or a known angiotensin II antagonist is administered i.v., i.p. or orally to each set of rats. […] The vasopressor response of angiotensin II is measured for the increase in systolic blood pressure in mmHg.

Setting [2] is: AII 0.05 mcg/kg IV, 60 min post dose.
The mark [3] stands for this setting: AII 0.05 mcg/kg IV, 300 min post dose.

For “[^125 I](Sar^1,Ile^8) AngII [reference compound]”, the “Specific binding of radioligand” value at Angiotensin II Receptor (microsomal membranes, 60 min, room temperature) is “greater than 90%”.

In the case of `CCCCc1nc2ccc([C@@H]3[C@@H]4C(=O)OC[C@@H]4ON3C)cc2c(=O)n1Cc1ccc(-c2ccccc2-c2nnn[nH]2)cc1` (relative stereo) [Example 54], the IC50 at Angiotensin II Receptor was found to be 160 nM.

Consider `CCCCc1nc2ccc(C3C4CCCN3OC4)cc2c(=O)n1Cc1ccc(-c2ccccc2-c2nnn[nH]2)cc1` (centres unmarked) [Example 21], for which the inhibition in vivo at 1 mg/kg is 53% in experiment [1] (0.5 h, AII 0.05 mcg/kg IV, 30 min post dose); 53% in experiment [1] (0.5 h, AII 0.1 mcg/kg IV, 30 min post dose); 68% in experiment [1] (1 h, AII 0.05 mcg/kg IV, 60 min post dose); 56% in experiment [1] (1 h, AII 0.1 mcg/kg IV, 60 min post dose); 63% in experiment [1] (2 h, AII 0.05 mcg/kg IV, 120 min post dose); 61% in experiment [1] (2 h, AII 0.1 mcg/kg IV, 120 min post dose). Moreover, the inhibition in vivo at 1 mg/kg was determined as 63% in experiment [1] (3 h, AII 0.05 mcg/kg IV, 180 min post dose); 47% in experiment [1] (3 h, AII 0.1 mcg/kg IV, 180 min post dose); 42% in experiment [1] (4 h, AII 0.05 mcg/kg IV, 240 min post dose); 61% in experiment [1] (4 h, AII 0.1 mcg/kg IV, 240 min post dose); 37% in experiment [1] (5 h, AII 0.05 mcg/kg IV, 300 min post dose); 34% in experiment [1] (5 h, AII 0.1 mcg/kg IV, 300 min post dose). The inhibition in vivo at 1 mg/kg is 63% in experiment [1] ([…], AII 0.05 mcg/kg IV, 90 min post dose) and 52% in experiment [1] ([…], AII 0.1 mcg/kg IV, 90 min post dose). Further, the “Average Change” value came to 22.5 mmHg in experiment [1] (AII 0.05 mcg/kg IV, 30 min post dose); 15 mmHg in experiment [1] (setting [2]); 17.5 mmHg in experiment [1] (AII 0.05 mcg/kg IV, 90 min post dose); 17.5 mmHg in experiment [1] (AII 0.05 mcg/kg IV, 120 min post dose); 17.5 mmHg in experiment [1] (AII 0.05 mcg/kg IV, 180 min post dose); 27.5 mmHg in experiment [1] (AII 0.05 mcg/kg IV, 240 min post dose). Moreover, the “Average Change” value in experiment [1] (setting [3]) turned out to be 30 mmHg; in experiment [1] (AII 0.1 mcg/kg IV, 30 min post dose), 27 mmHg; in experiment [1] (AII 0.1 mcg/kg IV, 60 min post dose) it was 25 mmHg; in experiment [1] (AII 0.1 mcg/kg IV, 90 min post dose), 27.5 mmHg; in experiment [1] (AII 0.1 mcg/kg IV, 120 min post dose) it was 22.5 mmHg; in experiment [1] (AII 0.1 mcg/kg IV, 180 min post dose) it was 30 mmHg. Moreover, the “Average Change” value in experiment [1] (AII 0.1 mcg/kg IV, 240 min post dose) amounted to 22.5 mmHg; in experiment [1] (AII 0.1 mcg/kg IV, 300 min post dose) it was 37.5 mmHg. Moreover, the Change in experiment [1] (setting [2]) amounted to 15 mmHg; in experiment [1] (setting [3]), 30 mmHg.
